{"source": "patent US20260007717A1", "about": "“ANTIMICROBIAL PEPTIDE COMPOUNDS AND METHODS OF USE” (priority 2022, published 2026)", "key": {"[1]": {"test_system": "pan-drug resistant (PDR) Acinetobacter baumannii YQ4", "experiment": "microbe, parasite or virus in culture"}, "P. gingivalis": {"test_system": "P. gingivalis", "assay_type": "cell-based", "details": "anaerobic BHI broth", "protocol": "Briefly, P. gingivalis is grown under anaerobic conditions to mid-log phase as per Dominy et al. […] The microtiter plate method outlined by Jansen (ibid) was used to measure MICs. Compounds and bacteria are added to wells of a microtiter plate and grown anaerobically (P. gingivalis) or with CO2 (L. salivarius) for 24 to 72 hours. Growth is measured with light scattering at 592 nm on a plate reader and absorbance plotted against μg/ml of drug in each well."}, "[2]": {"test_system": "Streptococcus pneumoniae, methicillin-sensitive Staphylococcus aureus, MRSA, Klebsiella pneumoniae and Pseudomonas aeruginosa", "assay_type": "cell-based"}, "A. baumannii YQ4 [3]": {"test_system": "A. baumannii YQ4", "experiment": "Bactericidal efficacy (LC99.9) in PBS with or without 50% human plasma", "assay_type": "cell-based, Acinetobacter baumannii", "details": "2 h, listed as COG1410", "protocol": "Antibacterial activity in plasma of COG1410 was performed as described previously. […] After incubation with shaking at 200 rpm at 37° C. for 2 hours, the CFUs were counted on LB agar. LC99.9 indicates the lowest peptide concentration that kills ≥99.9% bacteria (ie. a 1000 fold reduction). The experiments were conducted independently for three times."}, "A. baumannii": {"test_system": "A. baumannii", "experiment": "Bactericidal efficacy in PBS, LB broth and saline", "assay_type": "cell-based, Acinetobacter baumannii", "details": "1×MIC, 2 h"}, "[4]": {"experiment": "Stability in 100% human plasma (inhibition zone on A. baumannii YQ4)", "assay_type": "in vitro ADME"}, "A. baumannii YQ4 biofilm": {"test_system": "A. baumannii YQ4 biofilm", "experiment": "Static biofilm inhibition, crystal violet", "assay_type": "cell-based, Acinetobacter baumannii", "quoted_text": "200 μl culture was seeded in each cell of the 96-well PVC plate with OD600 0.01 (ca. 1×10^6 CFU/ml), which was exposed to different COG1410 solution with the final concentrations ranging from 0.5 to 128 μg/ml. Each concentration was determined in 8 wells. After incubation 37° C. for 48 h, the planktonic bacteria were removed by washing three times with sterilized water, followed by fixing in methanol for 15 min and staining with 0.1% crystal violet (CV) for 15 min. Excess CV was washed off and the bound CV was eluted from the biofilm into 150 μl of 95% ethanol and quantitated spectrophotometrically at 600 nm using a Biotek Synergy H1 plate reader. The experiments were performed in triplicate."}, "[5]": {"test_system": "A. baumannii YQ4 preformed biofilm", "experiment": "Biofilm eradication assay, crystal violet", "assay_type": "cell-based, Acinetobacter baumannii", "details": "24 h", "quoted_text": "Biofilm eradication assay was performed as described previously [24]. A. baumannii YQ4 culture at log phase was diluted into fresh LB broth to OD600 0.01 and 200 μl per well dispensed into a 96-well PVC plate. Plates were incubated at 37° C. for 48 h and washed with PBS for three times. Serial dilutions of COG1410 (0.5-128 μg/mL) were prepared using the same media and were dispensed with 200 μl into each well. Each concentration was determined in 8 wells. LB without COG1410 was used as untreated control. After incubation for another 24 h, the remaining biofilm was quantified as described above. The experiments were performed in triplicate."}, "A. baumannii YQ4 [6]": {"test_system": "A. baumannii YQ4", "experiment": "ATP leakage assay", "assay_type": "cell-based, Acinetobacter baumannii", "details": "1×MIC, 30 min", "quoted_text": "ATP leakage assay was performed using the Enhanced ATP Assay Kit of Beyotime (S0027) according to the manufacturer's manual. Briefly, the log-phase culture of A. baumannii YQ4 was prepared, washed and suspended in PBS as above. This suspension was exposed to 16 μg/ml COG1410, 16 μg/ml polymyxin B and 32 μg/ml tigecycline, respectively and incubated at 37° C. for 30 min. The supernatant was harvested and used for measurement of ATP levels. 100 μl of supernatant was mixed with 100 μl working solution and the chemiluminescence was measured by Biotek Synergy H1 plate reader. Untreated sample was set as negative control. The experiments were performed in triplicate."}, "A. baumannii YQ4 [7]": {"test_system": "A. baumannii YQ4", "experiment": "ROS detection with DCFH-DA probe", "assay_type": "cell-based, Acinetobacter baumannii"}, "[8]": {"test_system": "A. baumannii ATCC19606 and LPS-modified strains pmrAP102R and pmrAP102RmiaAI221V", "experiment": "MIC on wild-type and LPS-modified strains", "assay_type": "cell-based, Acinetobacter baumannii", "details": "LB broth", "quoted_text": "MIC was determined against A. baumannii wild-type strain ATCC19606 and the corresponding LPS-defective mutants with pmrAP102R and pmrAP102RmiaAI221V mutation in LB broth."}, "A. baumannii YQ4 [9]": {"test_system": "A. baumannii YQ4", "protocol": "The checkerboard method was performed to determine the fractional inhibitory concentration (FIC) index between COG1410 and other antimicrobials. Two-fold serial dilutions of antimicrobials and COG1410 were conducted and mixed in the 96-well plate. […] The experiments were conducted twice independently."}, "[10]": {"test_system": "pan-drug resistant (PDR) Acinetobacter baumannii YQ4"}, "[11]": {"details": "single intravenous injection; cited from earlier work"}, "[12]": {"test_system": "normal human hepatic L02 cells", "experiment": "Cytotoxicity, CCK8 assay", "details": "24 h", "quoted_text": "The cytotoxicity of COG1410 on normal liver cell L02 was assessed by Cell Counting Kit 8 (Solarbio, CA1210) according to the manufacturer's manual. Briefly, 100 μl human hepatic L02 cells were seeded in the 96-well plate with 4×10^3 cells per well in RPMI-1640 medium containing 20% FBS, and incubated at 37° C. in a 5% CO2 atmosphere for 24 h. The cells without exposure to peptide were used as negative control. Then, the L02 cells were incubated with different concentrations of COG1410 for another 24 h. 10 μl CCK8 solution was added to each well. After 2 h incubation, the optical absorbance at 450 nm was measured with BioTek synergy H1 plate reader. […] The experiments were done in triplicate."}, "PDR A. baumannii YQ4": {"test_system": "PDR A. baumannii YQ4", "experiment": "Dynamic time-kill assay in PBS", "quoted_text": "For dynamic time-kill assay, the overnight culture of A. baumannii YQ4 was transferred to fresh broth with initial OD600 0.01 and grown to the logarithmic phase. 1 ml culture was harvested, washed twice with 1× phosphate-buffered saline (PBS, pH7.4), containing 8 mM NaH2PO4, 2 mM KH2PO4, 2.6 mM KCl, 136 mM NaCl), and finally suspended in 1 ml PBS with OD600 0.5, which approximately corresponds to 1×10^8 CFU/ml. […] 100 μl aliquot was respectively taken at 0, 5, 10 and 30 min, serially diluted in PBS and plated on LB agar. The CFUs were counted after incubation at 37° C. for 18 h. […] Three independent experiments were performed."}, "A. baumannii YQ4 [13]": {"test_system": "A. baumannii YQ4", "experiment": "Nematode killing assay (infection model)", "details": "NGM plate; 16 μg/ml COG1410 alone or 2 μg/ml COG1410 plus 1 μg/ml polymyxin B"}, "A. baumanii YQ4": {"test_system": "A. baumanii YQ4", "experiment": "Induction of resistance through serial passage", "details": "after 55 passages at sub-MIC", "quoted_text": "The initial concentration of the tested compounds was set up as 1/32×MIC and doubled every 10 passages. The 1 ml of bacterial culture was stored in 10% sterile glycerol at −80° C. every 5 passages. The MIC value of collected cultures and original strains were measured through the micro-dilution method."}}, "note": "Several values for one entry are separate records, joined by “and”; a condition that tells them apart may be missing. Equal values may be shown once. Read-outs that look alike come from different tables or passages of the source. Non-standard residues stand in square brackets, D forms with d. Residues, ends and D or L forms follow the SMILES beside them. Aib = CC(C)(N)C(=O)O", "data": [{"smiles": "CN(C)c1cc(NC(=O)CNC(C)(C)C)c(O)c2c1C[C@H]1C[C@H]3[C@H](N(C)C)C(O)=C(C(N)=O)C(=O)[C@@]3(O)C(O)=C1C2=O", "note": "[tigecycline]", "values": [{"measurement": "MIC", "setting": "[1]", "result": 32, "unit": "µg/mL"}]}, {"smiles": "CC(=O)N[C@@H](C)C(=O)N[C@@H](CO)C(=O)NC(C)(C)C(=O)N[C@@H](CC(C)C)C(=O)N[C@@H](CCCNC(=N)N)C(=O)N[C@@H](CCCCN)C(=O)N[C@@H](CC(C)C)C(=O)NC(C)(C)C(=O)N[C@@H](CCCCN)C(=O)N[C@@H](CCCNC(=N)N)C(=O)N[C@@H](CC(C)C)C(=O)N[C@@H](CC(C)C)C(N)=O", "note": "[SEQ ID NO: 1, acetyl-AS-aib-LRKL-aib-KRLL-amide] (Ac-AS[Aib]LRKL[Aib]KRLL-NH2)", "values": [{"measurement": "MIC P. gingivalis", "setting": "P. gingivalis", "result": "16 to 64", "unit": "µg/mL"}, {"measurement": "antimicrobial activity", "setting": "[2]", "result": "inactive"}, {"measurement": "LC99.9", "setting": "A. baumannii YQ4 [3]; PBS with 50% human plasma", "result": "8 μg/ml and 5.6 μM"}, {"measurement": "LC99.9", "setting": "A. baumannii YQ4 [3]; PBS", "result": "2 μg/ml and 1.4 μM"}, {"measurement": "bactericidal efficacy", "setting": "A. baumannii", "result": "near elimination"}, {"measurement": "inhibition diameters", "setting": "[4]; 37° C., first 2 h", "result": "did not significantly change"}, {"measurement": "activity reduced", "setting": "[4]; 4 h", "result": 6.8, "unit": "%"}, {"measurement": "activity lost", "setting": "[4]; 10 h", "result": 20, "unit": "%"}, {"measurement": "activity retained", "setting": "[4]; after 10 h", "result": "more than 80%"}, {"measurement": "biofilm formation", "setting": "A. baumannii YQ4 biofilm; 0.5×MIC, 48 h", "result": "significantly reduced biofilm formation"}, {"measurement": "biofilm mass reduced, compared with untreated controls", "setting": "A. baumannii YQ4 biofilm; 1×MIC", "result": 55, "unit": "%"}, {"measurement": "mature biofilm dispersed", "setting": "[5]; 1×MIC", "result": "ca. 46%"}, {"measurement": "biofilm eradicated", "setting": "[5]; 4×MIC", "result": "more than 88%"}, {"measurement": "ATP leakage", "setting": "A. baumannii YQ4 [6]", "result": "significantly more than untreated controls and the tigecycline treatment group"}, {"measurement": "ROS production", "setting": "A. baumannii YQ4 [7]; 16 μg/ml", "result": "significantly increased ROS production"}, {"measurement": "more ROS detected after treatment", "setting": "A. baumannii YQ4 [7]; treatment for 20 min", "result": 30, "unit": "%"}, {"measurement": "effect of lipidA modification of LPS on antimicrobial efficacy", "setting": "[8]", "result": "did not change the antimicrobial efficacy"}, {"measurement": "working concentration in the combination", "setting": "A. baumannii YQ4 [9]; COG1410 combined with polymyxin B", "result": 2, "unit": "µg/mL"}, {"measurement": "FIC", "setting": "A. baumannii YQ4 [9]; in combination with Ceftazidime", "result": 0.31}, {"measurement": "FIC", "setting": "A. baumannii YQ4 [9]; in combination with polymyxin B", "result": 0.13}, {"measurement": "FIC", "setting": "A. baumannii YQ4 [9]; in combination with tetracycline", "result": 0.31}, {"measurement": "MIC", "setting": "[10]; A. baumannii YQ4", "result": 11.3, "unit": "µM"}, {"measurement": "MIC", "setting": "[10]; A. baumannii YQ4, LB broth", "result": 16, "unit": "µg/mL"}, {"measurement": "minimal bactericidal concentration (MBC)", "setting": "[10]; A. baumannii YQ4, listed as COG1410", "result": "16 μg/ml and 11.3 μM"}, {"measurement": "EC50 (half of the red blood cells lysed)", "setting": "human erythrocytes; 1 h", "result": 441, "unit": "µg/mL"}, {"measurement": "hemolysis", "setting": "human erythrocytes; red cells of human, 128 μg/ml", "result": "less than 5%"}, {"measurement": "functional outcome", "setting": "[11]", "result": "significantly improved vestibulomotor function and spatial learning and memory"}, {"measurement": "half-maximal (EC50) toxicity concentration", "setting": "[12]", "result": 58.9, "unit": "µg/mL"}, {"measurement": "reduction in CFU", "setting": "PDR A. baumannii YQ4; 1×MIC, 30 min", "result": 6, "unit": "log"}, {"measurement": "decrease of CFU", "setting": "PDR A. baumannii YQ4; 1×MIC, within 5 min", "result": "~3", "unit": "logs"}, {"measurement": "killing of inoculum (1×10^8 CFU/ml)", "setting": "PDR A. baumannii YQ4; 5×MIC, within 5 min", "result": "completely eliminated"}, {"measurement": "survival of pre-infected nematodes", "setting": "A. baumannii YQ4 [13]", "result": "alleviated the death of infected nematodes, but the change was not statistically significantly"}, {"measurement": "increase of MIC", "setting": "A. baumanii YQ4", "result": 4, "unit": "fold"}]}]}
